Reference: patent US20210085711A1 (Japan Tobacco Inc., priority 2017, published 2021)
Where two headings read alike, the source gives them in different places.

How the values were obtained:
[1] = test system: patients with hypermenorrhea and/or patients with hypermenorrhea-associated gynecologic diseases (iron-deficiency anemia patients); settings: for Hb change, End of administration, Mean: change from baseline; for Williams test, Mean of change amount from the baseline at the end of administration, JTT-751-placebo: difference to placebo
Protocol: (§1) This test was a three-stage safety and efficacy clinical trial at multi-facilities. The first stage was a pre-observation period (Day −40 to Day −1), the second stage was an administration period (Day 1 to Day 48) (efficacy and safety evaluation period), and the third stage was a post-observation period (Day 49 to Day 63) (efficacy and safety evaluation period). The safety evaluation and efficacy evaluation were performed by multi-facility collaboration, placebo control, random allocation, double-blind trial, and parallel group comparison test.
(§2) The administration period of the trial drug is seven weeks which starts from the next day of the Week 0 visit to the day before the Week 7 visit, provided that the trial drug is not taken on the scheduled Week 3 visit.
Amount of change in blood hemoglobin value (Hb) from Week 0 at the end of administration
The mean of each administration group is used as a placebo group (μ1), a 250 mg group (μ2), a 500 mg group (μ3), a 1000 mg group (μ4), a 1500 mg group (μ5).
(§3) The blood hemoglobin value (Hb), the serum iron level, the serum ferritin value, the total iron-binding capacity (TIBC) and the transferrin saturation rate (TSAT), and the mean corpuscular volume (MCV) were each examined at the observation start date, Week 0, Week 3, Week 7, the end of administration and the consultation at nine weeks after Week 0; the hepcidin concentration (Hepcidin 25) and the serum soluble transferrin receptor concentration (sTfR) were each examined on Week 0, Week 3 and Week 7 and at the end of administration; and the C-terminal FGF23 value (cFGF23) and the intact FGF23 value (iFGF23) were each examined on Week 0 and Week 7 and at the end of administration.

[2] = test system: patients with hypermenorrhea and/or patients with hypermenorrhea-associated gynecologic diseases (iron-deficiency anemia patients); experiment: Phase II clinical trial of JTT-751: hepcidin concentration (Hepcidin 25); format: in vivo, human
Protocol: as §1
(1) Japanese patients who are 20 or more and less than 65 years old at the time of agreement and can visit an outpatient clinic (2) Patients who have an Hb value (measured using HemoCue® Hb 201 DM analyzer in the institute of clinical practice) of 7.0 g/dL or more and less than 11.0 g/dL on both the observation start date and Week 0, and the difference between the two days is 1.0 g/dL or less (3) Patients with a TIBC of 360 μg/dL or more or a serum ferritin value of less than 12 ng/mL on the observation start date
as §2
(2) Subsidiary evaluation items 1) Erythrocyte-related examination values and amount of change from Week 0 at each observation date 2) Iron-related test values and amount of change from Week 0 at each observation date 3) Achievement rate of target Hb value (female; 12.0 g/dL or more, male; 13.0 g/dL or more) at each observation date 4) Achievement rate of 1.0 g/dL or more and achievement rate of 2.0 g/dL or more in Hb value improvement from Week 0 at each observation date 5) Average daily change of Hb value from Week 0 to each observation date
as §3

[3] = End of administration, JTT-751 250 mg group
[4] = End of administration, JTT-751 500 mg group
[5] = End of administration, JTT-751 1000 mg group
[6] = End of administration, JTT-751 1500 mg group
[7] = Week 0 (baseline), JTT-751 250 mg group
[8] = Week 0 (baseline), JTT-751 500 mg group
[9] = Week 0 (baseline), JTT-751 1000 mg group
[10] = Week 0 (baseline), JTT-751 1500 mg group

Ferric citrate [JTT-751]
Hb measured value, Base line, Mean ([1]; 250 mg/day): 9.47 g/dL
Hb measured value, End of administration, Mean ([1]; 250 mg/day): 11.72 g/dL
Williams test, Mean of change amount from the baseline at the end of administration, Mean ([1]; 250 mg/day): 2.25 g/dL
Hb, Median ([1]; 250 mg/day, 9 weeks after Week 0): 11.60 g/dL
Hb, Median ([1]; 250 mg/day, End of administration): 11.80 g/dL
Hb, Median ([1]; 250 mg/day, Observation start date (before administration)): 9.55 g/dL
Hb, Median ([1]; 250 mg/day, Week 0 (baseline)): 9.80 g/dL
Hb, Median ([1]; 250 mg/day, Week 3): 10.75 g/dL
Hb, Median ([1]; 250 mg/day, Week 7): 11.80 g/dL
Hb change, End of administration, Mean ([1]; 250 mg/day): 2.25 g/dL
Williams test, Mean of change amount from the baseline at the end of administration, JTT-751-placebo ([1]; 250 mg/day): 2.50 g/dL
Hb measured value, Base line, Mean ([1]; 500 mg/day): 8.98 g/dL
Hb measured value, End of administration, Mean ([1]; 500 mg/day): 11.71 g/dL
Williams test, Mean of change amount from the baseline at the end of administration, Mean ([1]; 500 mg/day): 2.73 g/dL
Hb, Median ([1]; 500 mg/day, 9 weeks after Week 0): 11.70 g/dL
Hb, Median ([1]; 500 mg/day, End of administration): 11.90 g/dL
Hb, Median ([1]; 500 mg/day, Observation start date (before administration)): 9.30 g/dL
Hb, Median ([1]; 500 mg/day, Week 0 (baseline)): 8.95 g/dL
Hb, Median ([1]; 500 mg/day, Week 3): 10.10 g/dL
Hb, Median ([1]; 500 mg/day, Week 7): 11.90 g/dL
Hb change, End of administration, Mean ([1]; 500 mg/day): 2.73 g/dL
Williams test, Mean of change amount from the baseline at the end of administration, JTT-751-placebo ([1]; 500 mg/day): 2.98 g/dL
Hb measured value, Base line, Mean ([1]; 1000 mg/day): 9.66 g/dL
Hb measured value, End of administration, Mean ([1]; 1000 mg/day): 12.72 g/dL
Williams test, Mean of change amount from the baseline at the end of administration, Mean ([1]; 1000 mg/day): 3.05 g/dL
Hb, Median ([1]; 1000 mg/day, 9 weeks after Week 0): 12.70 g/dL
Hb, Median ([1]; 1000 mg/day, End of administration): 12.90 g/dL
Hb, Median ([1]; 1000 mg/day, Observation start date (before administration)): 9.90 g/dL
Hb, Median ([1]; 1000 mg/day, Week 0 (baseline)): 9.80 g/dL
Hb, Median ([1]; 1000 mg/day, Week 3): 11.80 g/dL
Hb, Median ([1]; 1000 mg/day, Week 7): 12.90 g/dL
Hb change, End of administration, Mean ([1]; 1000 mg/day): 3.05 g/dL
Williams test, Mean of change amount from the baseline at the end of administration, JTT-751-placebo ([1]; 1000 mg/day): 3.30 g/dL
Hb measured value, Base line, Mean ([1]; 1500 mg/day): 9.38 g/dL
Hb measured value, End of administration, Mean ([1]; 1500 mg/day): 12.75 g/dL
Williams test, Mean of change amount from the baseline at the end of administration, Mean ([1]; 1500 mg/day): 3.37 g/dL
Hb, Median ([1]; 1500 mg/day, 9 weeks after Week 0): 12.70 g/dL
Hb, Median ([1]; 1500 mg/day, End of administration): 13.00 g/dL
Hb, Median ([1]; 1500 mg/day, Observation start date (before administration)): 9.40 g/dL
Hb, Median ([1]; 1500 mg/day, Week 0 (baseline)): 9.40 g/dL
Hb, Median ([1]; 1500 mg/day, Week 3): 11.60 g/dL
Hb, Median ([1]; 1500 mg/day, Week 7): 13.00 g/dL
Hb change, End of administration, Mean ([1]; 1500 mg/day): 3.37 g/dL
Williams test, Mean of change amount from the baseline at the end of administration, JTT-751-placebo ([1]; 1500 mg/day): 3.62 g/dL
blood hemoglobin value, dose dependence ([1]; 250-1500 mg/day): increases along with the dose increase
blood hemoglobin value, time-dependent change ([1]; Week 0, Week 3 and Week 7): increased along with the continuous administration
blood hemoglobin value after completion of administration ([1]; nine weeks after Week 0 (two weeks after completion of administration)): did not decrease
blood hemoglobin value compared to the placebo administration group ([1]; regardless of the dose amount (250-1500 mg/day), end of administration): significantly increase
Hepcidin-25, Mean [2, 3]: 2.196 pg/mL
Hepcidin-25, Median [2, 3]: 1.520 pg/mL
Hepcidin-25, Mean [2, 4]: 4.818 pg/mL
Hepcidin-25, Median [2, 4]: 3.925 pg/mL
Hepcidin-25, Mean [2, 5]: 11.465 pg/mL
Hepcidin-25, Median [2, 5]: 9.680 pg/mL
Hepcidin-25, Mean [2, 6]: 11.674 pg/mL
Hepcidin-25, Median [2, 6]: 8.440 pg/mL
Hepcidin-25, Mean [2, 7]: 0.726 pg/mL
Hepcidin-25, Median [2, 7]: 0.715 pg/mL
Hepcidin-25, Mean [2, 8]: 0.593 pg/mL
Hepcidin-25, Median [2, 8]: 0.290 pg/mL
Hepcidin-25, Mean [2, 9]: 0.509 pg/mL
Hepcidin-25, Median [2, 9]: 0.410 pg/mL
Hepcidin-25, Mean [2, 10]: 0.631 pg/mL
Hepcidin-25, Median [2, 10]: 0.600 pg/mL
Hepcidin 25 concentration, time-dependent change ([2]; Week 0, Week 3 and Week 7): increased along with the continuous administration
Hepcidin-25, Mean ([2]; Week 3, JTT-751 250 mg group): 1.289 pg/mL
Hepcidin-25, Median ([2]; Week 3, JTT-751 250 mg group): 0.695 pg/mL
Hepcidin-25, Mean ([2]; Week 3, JTT-751 500 mg group): 1.839 pg/mL
Hepcidin-25, Median ([2]; Week 3, JTT-751 500 mg group): 0.895 pg/mL
Hepcidin-25, Mean ([2]; Week 3, JTT-751 1000 mg group): 8.623 pg/mL
Hepcidin-25, Median ([2]; Week 3, JTT-751 1000 mg group): 8.430 pg/mL
Hepcidin-25, Mean ([2]; Week 3, JTT-751 1500 mg group): 7.813 pg/mL
Hepcidin-25, Median ([2]; Week 3, JTT-751 1500 mg group): 5.940 pg/mL
Hepcidin-25, Mean ([2]; Week 7, JTT-751 250 mg group): 2.196 pg/mL
Hepcidin-25, Median ([2]; Week 7, JTT-751 250 mg group): 1.520 pg/mL
Hepcidin-25, Mean ([2]; Week 7, JTT-751 500 mg group): 4.818 pg/mL
Hepcidin-25, Median ([2]; Week 7, JTT-751 500 mg group): 3.925 pg/mL
Hepcidin-25, Mean ([2]; Week 7, JTT-751 1000 mg group): 11.465 pg/mL
Hepcidin-25, Median ([2]; Week 7, JTT-751 1000 mg group): 9.680 pg/mL
Hepcidin-25, Mean ([2]; Week 7, JTT-751 1500 mg group): 11.674 pg/mL
Hepcidin-25, Median ([2]; Week 7, JTT-751 1500 mg group): 8.440 pg/mL
